# Assay results from patent US20110060017A1, “NOVEL 1,2,3-TRIAZOLE DERIVATIVES USEFUL AS MODULATORS OF NICOTINIC ACETYLCHOLINE RECEPTORS” (Neurosearch A/S, priority 2008, published 2011).
# Experiments:
# [1] = molecular target: T1, wild-type nAChR α7 receptors (Homo sapiens, UniProt P36544); assay: Positive modulation of acetylcholine-induced nAChR α7 currents in Xenopus laevis oocytes (two-electrode voltage clamp); type: cell-based
# T1 construct: expressed in transfected cells; host or cells: Xenopus laevis oocytes
# Experimental: In this example the positive modulation of wild-type nAChR α7 receptors by Compound 4 (i.e. 4-[5-Amino-4-(2,4-dichloro-phenyl)-[1,2,3]triazol-1-ylmethyl]phenol; FIGS. 1A and 1B) was determined using nAChR α7 receptors heterologously expressed in Xenopus laevis oocytes.
# The electrical current through the nAChR α7 channel was measured using conventional two-electrode voltage clamp and nAChR α7 currents were activated by applying pulses of agonist-containing solution onto the nAChR α7 expressing oocyte.
# In brief, the oocytes were placed in a recording chambers and continuously super-fused with an Oocyte Ringer (OR) solution containing 90 mM NaCl, 2.5 mM KCl, 2.5 mM CaCl2, 1 mM MgCl2 and 5 mM HEPES (pH adjusted to 7.4). The oocytes were clamped at −60 mV and currents were induced by applying 20 s pulses of 100 μM acetylcholine dissolved in OR. The intervals between the acetylcholine applications were 5 minutes, during which the oocytes were washed with OR. The first three applications were control applications to insure a constant response level of 100 μM acetylcholine.
# The positive modulation in the presence of Compound 4 was calculated as (test-control)/control*100% and the concentration response curve for this positive modulation was fitted to the sigmoidal logistic equation: I=Imax/(1+(EC50/[compound])^n), where Imax represents the maximal modulation of the control response, EC50 is the concentration causing a half maximal response, and n is the slope coefficient.
# T1 sequence (P36544 23-502): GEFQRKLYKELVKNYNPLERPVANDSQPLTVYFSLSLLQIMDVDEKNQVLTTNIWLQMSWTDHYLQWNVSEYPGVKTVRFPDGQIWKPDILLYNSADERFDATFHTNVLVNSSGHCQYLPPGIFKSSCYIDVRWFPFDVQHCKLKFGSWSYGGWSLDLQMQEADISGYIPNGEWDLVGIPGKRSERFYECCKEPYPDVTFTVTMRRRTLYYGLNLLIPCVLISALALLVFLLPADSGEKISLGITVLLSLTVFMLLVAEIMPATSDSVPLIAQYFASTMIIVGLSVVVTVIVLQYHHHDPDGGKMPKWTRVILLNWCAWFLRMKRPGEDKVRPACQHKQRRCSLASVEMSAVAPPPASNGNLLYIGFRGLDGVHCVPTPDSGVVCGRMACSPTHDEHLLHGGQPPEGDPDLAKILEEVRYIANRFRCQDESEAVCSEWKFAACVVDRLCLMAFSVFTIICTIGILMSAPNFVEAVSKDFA
SMILES,melting point,"Imax, maximal modulation of the acetylcholine response ([1]; 100 μM acetylcholine, (test-control)/control*100%, Xenopus laevis oocytes, 0.01-31.6 μM compound)","EC50 ([1]; 100 μM acetylcholine, nAChR α7 expressed in Xenopus laevis oocytes, clamped at −60 mV, 0.01-31.6 μM compound, read-out: EC50 for positive modulation of acetylcholine responses)",effect on acetylcholine-induced current amplitude ([1]; 0.01-31.6 μM compound applied 30 s before and during 100 μM acetylcholine)
"COc1ccc(Cn2nnc(-c3ccc(Cl)cc3Cl)c2N)cc1 [Compound 1, 5-(2,4-Dichloro-phenyl)-3-(4-methoxy-benzyl)-3H-[1,2,3]triazol-4-ylamine]",134.4 to 136.8 °C,–,–,–
"Nc1c(-c2ccc(Cl)cc2Cl)nnn1Cc1ccc(O)cc1 [Compound 4, 4-[5-Amino-4-(2,4-dichloro-phenyl)-[1,2,3]triazol-1-ylmethyl]-phenol]",172.5 to 174.1 °C,277%,1.1 µM,robust increase
"Nc1c(-c2ccc(C(F)(F)F)cc2F)nnn1Cc1ccc(S(N)(=O)=O)cc1 [Compound 5, 4-[5-Amino-4-(2-fluoro-4-trifluoromethyl-phenyl)-[1,2,3]-triazol-1-ylmethyl]-benzenesulfonamide]",180.1 to 181.3 °C,–,–,–
"Nc1c(-c2ccc(Cl)cc2Cl)nnn1Cc1ccc(S(N)(=O)=O)cc1 [Compound 6, 4-[5-Amino-4-(2,4-dichloro-phenyl)-[1,2,3]-triazol-1-ylmethyl]-benzenesulfonamide]",204 to 205.6 °C,–,–,–

# Results, then the molecule that gave them:
melting point,"Imax, maximal modulation of the acetylcholine response ([1]; 100 μM acetylcholine, (test-control)/control*100%, Xenopus laevis oocytes, 0.01-31.6 μM compound)","EC50 ([1]; 100 μM acetylcholine, nAChR α7 expressed in Xenopus laevis oocytes, clamped at −60 mV, 0.01-31.6 μM compound, read-out: EC50 for positive modulation of acetylcholine responses)",effect on acetylcholine-induced current amplitude ([1]; 0.01-31.6 μM compound applied 30 s before and during 100 μM acetylcholine),SMILES
156.5 to 159 °C,–,–,–,"COc1ccc(-c2nnn(Cc3ccc(Cl)cc3Cl)c2N)cc1 [Compound 2, 3-(2,4-Dichloro-benzyl)-5-(4-methoxy-phenyl)-3H-[1,2,3]-triazol-4-ylamine]"
153.2 to 154.4 °C,–,–,–,"COc1ccc(Cn2nnc(-c3ccc(C(F)(F)F)cc3F)c2N)cc1 [Compound 7, 5-(2-Fluoro-4-trifluoromethyl-phenyl)-3-(4-methoxy-benzyl)-3H-[1,2,3]-triazol-4-ylamine]"
168.2 to 169.5 °C,–,–,–,"Nc1c(-c2ccc(C(F)(F)F)cc2F)nnn1Cc1ccc(O)cc1 [Compound 8, 4-[5-Amino-4-(2-fluoro-4-trifluoromethyl-phenyl)-[1,2,3]-triazol-1-ylmethyl]-phenol]"
